# Calls of active or inactive are those of the source. How the calls were made is not given here.
# System: rodent carcinogenicity bioassays, tumor incidence
# Test: CCRIS carcinogenicity studies
# Procedure, shortened: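 Archive of carcinogenicity, mutagenicity, tumor promotion and tumor inhibition results drawn from journals, NCI reports and other sources, expert-reviewed; covers 1985-2011 and is no longer updated.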
smiles,measurement,setting,value
Cc1ncc[nH]1,carcinogen call,"Species: MOUSE, Strain/Sex: B6C3F1/FEMALE, Route: ORAL (DIET), Dose: 0, 625, 1250, 2500 PPM FOR 105 WKS (STUDY DURATION: 105 WKS), Dose: 0, 625, 1250, 2500 PPM FOR 105 WKS (STUDY DURATION: 105 WKS), Tumor Site: Type of Lesion: LIVER: HEPATOCELLULAR ADENOMA",active; positive
same,carcinogen call,"Species: MOUSE, Strain/Sex: B6C3F1/MALE, Route: ORAL (DIET), Dose: 0, 625, 1250, 2500 PPM FOR 105 WKS (STUDY DURATION: 105 WKS), Dose: 0, 625, 1250, 2500 PPM FOR 105 WKS (STUDY DURATION: 105 WKS), Tumor Site: Type of Lesion: LIVER: HEPATOCELLULAR ADENOMA OR CARCINOMA, THYROID: FOLLICULAR CELL ADENOMA",active; positive
same,carcinogen call,"Species: RAT, Strain/Sex: F344/N/FEMALE, Route: ORAL (DIET), Dose: 0, 1000, 2500, 5000 PPM FOR 106 WKS (STUDY DURATION: 106 WKS), Dose: 0, 1000, 2500, 5000 PPM FOR 106 WKS (STUDY DURATION: 106 WKS), Tumor Site: Type of Lesion: THYROID: FOLLICULAR CELL ADENOMA OR CARCINOMA",active; positive
same,carcinogen call,"Species: RAT, Strain/Sex: F344/N/MALE, Route: ORAL (DIET), Dose: 0, 300, 1000, 3000 PPM FOR 106 WKS (STUDY DURATION: 106 WKS), Dose: 0, 300, 1000, 3000 PPM FOR 106 WKS (STUDY DURATION: 106 WKS)",inactive; negative
CCOC(=O)c1ccccc1C(=O)OCC,carcinogen call,"Species: MOUSE, Strain/Sex: B6C3F1/FEMALE, Route: DERMAL, Dose: 0, 7.5, 15, 30 µL/100 µL IN ACETONE 5 D/WK FOR 104-105 WK (STUDY DURATION: 104-105 WK), Dose: 0, 7.5, 15, 30 µL/100 µL IN ACETONE 5 D/WK FOR 104-105 WK (STUDY DURATION: 104-105 WK), Tumor Site: Type of Lesion: LIVER: HEPATOCELLULAR ADENOMA, HEPATOCELLULAR ADENOMA OR CARCINOMA",equivocal
same,carcinogen call,"Species: MOUSE, Strain/Sex: B6C3F1/MALE, Route: DERMAL, Dose: 0, 7.5, 15, 30 µL/100 µL IN ACETONE 5 D/WK FOR 104-105 WK (STUDY DURATION: 104-105 WK), Dose: 0, 7.5, 15, 30 µL/100 µL IN ACETONE 5 D/WK FOR 104-105 WK (STUDY DURATION: 104-105 WK), Tumor Site: Type of Lesion: LIVER: HEPATOCELLULAR ADENOMA, HEPATOCELLULAR ADENOMA OR CARCINOMA",equivocal
same,carcinogen call,"Species: RAT, Strain/Sex: F344/FEMALE, Route: DERMAL, Dose: 0, 100, 300 µL IN ACETONE 5 D/WK FOR 104 WK (STUDY DURATION: 104 WK), Dose: 0, 100, 300 µL IN ACETONE 5 D/WK FOR 104 WK (STUDY DURATION: 104 WK)",inactive; negative
same,carcinogen call,"Species: RAT, Strain/Sex: F344/MALE, Route: DERMAL, Dose: 0, 100, 300 µL IN ACETONE 5 D/WK FOR 104 WK (STUDY DURATION: 104 WK), Dose: 0, 100, 300 µL IN ACETONE 5 D/WK FOR 104 WK (STUDY DURATION: 104 WK)",inactive; negative
CSC1=N[C@@](C)(c2ccccc2)C(=O)N1Nc1ccccc1,carcinogen call,"Species: Mouse, Strain/Sex: C57BL/10JfCD-1 Alpk/Female (55/Group), Route: Oral, Dose: 0, 70, 350, 3500, 7000 ppm (0; 12.6; 63.8; 690.5; 1393.2 mg/kg/d) for 80 wks, study duration 80 wks, Dose: 0, 70, 350, 3500, 7000 ppm (0; 12.6; 63.8; 690.5; 1393.2 mg/kg/d) for 80 wks, study duration 80 wks",inactive; negative
same,carcinogen call,"Species: Mouse, Strain/Sex: C57BL/10JfCD-1 Alpk/Male (55/Group), Route: Oral, Dose: 0, 70, 350, 3500, 7000 ppm (0; 9.5; 47.5; 525.5; 1100.2 mg/kg/d) for 80 wks, study duration 80 wks, Dose: 0, 70, 350, 3500, 7000 ppm (0; 9.5; 47.5; 525.5; 1100.2 mg/kg/d) for 80 wks, study duration 80 wks",inactive; negative
same,carcinogen call,"Species: Rat, Strain/Sex: Sprague-Dawley/Female (70/Group), Route: Oral, Dose: 0, 60, 150, 1000 ppm (0; 3.63; 9.24; 60.93 mg/kg/day) in diet for 104 wks, study duration 104 wks, Dose: 0, 60, 150, 1000 ppm (0; 3.63; 9.24; 60.93 mg/kg/day) in diet for 104 wks, study duration 104 wks",inactive; negative
same,carcinogen call,"Species: Rat, Strain/Sex: Sprague-Dawley/Female (70/Group), Route: Oral, Dose: 0, 5000 ppm in diet for 104 wks, study duration 104 wks, Dose: 0, 5000 ppm in diet for 104 wks, study duration 104 wks",inactive; negative
same,carcinogen call,"Species: Rat, Strain/Sex: Sprague-Dawley/Male (70/Group), Route: Oral, Dose: 0, 60, 150, 1000 ppm (0; 2.83; 7.07; 47.68 mg/kg/day) in diet for 104 wks, study duration 104 wks, Dose: 0, 60, 150, 1000 ppm (0; 2.83; 7.07; 47.68 mg/kg/day) in diet for 104 wks, study duration 104 wks",inactive; negative
same,carcinogen call,"Species: Rat, Strain/Sex: Sprague-Dawley/Male (70/Group), Route: Oral, Dose: 0, 5000 ppm in diet for 104 wks, study duration 104 wks, Dose: 0, 5000 ppm in diet for 104 wks, study duration 104 wks",inactive; negative
CCNC(=O)[C@@H]1CCCN1C(=O)[C@H](CCCN=C(N)N)NC(=O)[C@H](CC(C)C)NC(=O)[C@@H](COC(C)(C)C)NC(=O)[C@H](Cc1ccc(O)cc1)NC(=O)[C@H](CO)NC(=O)[C@H](Cc1c[nH]c2ccccc12)NC(=O)[C@H](Cc1cnc[nH]1)NC(=O)[C@@H]1CCC(=O)N1,carcinogen call,"Species: RAT, Strain/Sex: WISTAR/FEMALE, Route: SUBCUTANEOUS, Dose: 0, 0.0002, 0.0006, 0.0018 MG/KG 1/D FOR 24 MO (STUDY DURATION: 30 MO), Dose: 0, 0.0002, 0.0006, 0.0018 MG/KG 1/D FOR 24 MO (STUDY DURATION: 30 MO)",inactive; negative
same,carcinogen call,"Species: RAT, Strain/Sex: WISTAR/MALE, Route: SUBCUTANEOUS, Dose: 0, 0.0002, 0.0006, 0.0018 MG/KG 1/D FOR 24 MO (STUDY DURATION: 30 MO), Dose: 0, 0.0002, 0.0006, 0.0018 MG/KG 1/D FOR 24 MO (STUDY DURATION: 30 MO)",inactive; negative
O=S1(=O)CCCO1,carcinogen call,"Species: MOUSE, Strain/Sex: ICR/FEMALE, Route: SUBCUTANEOUS, Dose: 0.3 MG IN WATER 1/WK FOR 63 WK, Tumor Site: Type of Lesion: INJECTION SITE: ADENOACANTHOMA, SARCOMA",active; positive
same,carcinogen call,"Species: RAT, Strain/Sex: STRAIN-BD, Route: SUBCUTANEOUS, Dose: 15, 30 MG/KG IN ARACHIS OIL 1/WK FOR 1 YR, Tumor Site: Type of Lesion: INJECTION SITE: MYOSARCOMA, FIBROSARCOMA",active; positive
same,carcinogen call,"Species: RAT, Strain/Sex: STRAIN-BD, Route: SUBCUTANEOUS, Dose: 15, 30 MG/KG IN WATER 1/WK FOR 1 YR, Tumor Site: Type of Lesion: INJECTION SITE: SARCOMA",active; positive
same,carcinogen call,"Species: RAT, Strain/Sex: STRAIN-CD/FEMALE, Route: GAVAGE, Dose: 28, 56 MG/KG IN WATER 2/WK FOR 78 WK (LOW DOSE) OR 32 WK (HIGH DOSE), Tumor Site: Type of Lesion: BRAIN (CEREBELLUM, CEREBRUM): MALIGNANT GLIOMA, MAMMARY GLAND: ADENOCARCINOMA",active; positive
same,carcinogen call,"Species: RAT, Strain/Sex: STRAIN-CD/MALE, Route: GAVAGE, Dose: 28, 56 MG/KG IN WATER 2/WK FOR 78 WK (LOW DOSE) OR 32 WK (HIGH DOSE), Tumor Site: Type of Lesion: BRAIN (CEREBELLUM, CEREBRUM): MALIGNANT GLIOMA",active; positive
COc1ccc([N+](=O)[O-])cc1N=Nc1c(O)c(C(=O)Nc2cccc([N+](=O)[O-])c2)cc2ccccc12,carcinogen call,"Species: MOUSE, Strain/Sex: B6C3F1/FEMALE, Route: ORAL, Dose: 0, 10000, 25000, 50000 PPM IN DIET FOR 720 D (STUDY DURATION: 104 WK), Dose: 0, 10000, 25000, 50000 PPM IN DIET FOR 720 D (STUDY DURATION: 104 WK)",inactive; negative
same,carcinogen call,"Species: MOUSE, Strain/Sex: B6C3F1/MALE, Route: ORAL, Dose: 0, 10000, 25000, 50000 PPM IN DIET FOR 720 D (STUDY DURATION: 104 WK), Dose: 0, 10000, 25000, 50000 PPM IN DIET FOR 720 D (STUDY DURATION: 104 WK)",inactive; negative
same,carcinogen call,"Species: RAT, Strain/Sex: F344/FEMALE, Route: ORAL, Dose: 0, 10000, 25000, 50000 PPM IN DIET FOR 720 D (STUDY DURATION: 105 WK), Dose: 0, 10000, 25000, 50000 PPM IN DIET FOR 720 D (STUDY DURATION: 105 WK)",inactive; negative
same,carcinogen call,"Species: RAT, Strain/Sex: F344/MALE, Route: ORAL, Dose: 0, 10000, 25000, 50000 PPM IN DIET FOR 103 WK (STUDY DURATION: 105 WK), Dose: 0, 10000, 25000, 50000 PPM IN DIET FOR 103 WK (STUDY DURATION: 105 WK), Tumor Site: Type of Lesion: KIDNEY: RENAL TUBULE ADENOMA OR CARCINOMA, MULTIPLE ORGANS: MONONUCLEAR CELL LEUKEMIA",equivocal
CC1CC(=O)O1 (stereo unspecified),carcinogen call,"Species: MOUSE, Route: DERMAL, Tumor Site: Type of Lesion: INTEGUMENTARY SYSTEM (SKIN)",active; positive
same,carcinogen call,"Species: MOUSE, Route: SUBCUTANEOUS, Tumor Site: Type of Lesion: INJECTION SITE",active; positive
same,carcinogen call,"Species: RAT, Route: GAVAGE, Tumor Site: Type of Lesion: FORESTOMACH",active; positive
same,carcinogen call,"Species: RAT, Route: SUBCUTANEOUS, Tumor Site: Type of Lesion: INJECTION SITE",active; positive
CC(=O)O[C@]1(C(C)=O)CC[C@H]2[C@@H]3C[C@H](C)C4=CC(=O)CC[C@]4(C)[C@H]3CC[C@@]21C,carcinogen call,"Species: DOG, Route: INTRAMUSCULAR, Tumor Site: Type of Lesion: MAMMARY GLAND",active; positive
same,carcinogen call,"Species: MONKEY, Strain/Sex: CYNOMOLGUS/FEMALE, Route: ORAL, Dose: 0, 2.5 MG/WOMAN/D HUMAN DOSE EQUIVALENT IN DIET FOR 36 MONTHS BEGINNING 3 MONTHS POST BILATERAL OVARIECTOMY (STUDY DURAT",inactive; negative

# Reference: PubChem BioAssay AID1259411 (Chemical Carcinogenesis Research Information System (CCRIS), 2018)
